The text below walks through data of publication PMC11992225, “Antibacterial compounds against non-growing and intracellular bacteria” (npj Antimicrobials and Resistance, 2025).

As a reminder, the MIC is the lowest concentration that inhibits growth of the organism. In general, IC50 refers to the midpoint of a concentration-inhibition curve.

≈ marks a conversion by molar mass, not a printed value. Like-named read-outs stand apart in the source and are kept apart here.

Assay [1] has as its system non-growing S. aureus DSM2569. Description: Dose-dependent killing analysis (CFU spot-plating) of stationary-phase S. aureus.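 Also: drug concentration in µM.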 Format: cell-based, Staphylococcus aureus. The conditions noted are these: S. aureus, vs 9,097 before treatment. The procedure:
To determine the spectrum of activity of the compounds that were effective against non-growing UPEC, we further assessed their efficacy against the well-characterized Gram-negative and Gram-positive reference strains P. aeruginosa DSM1117 and S. aureus DSM2569, respectively. The cultures were grown and treated for 24 h in 1:4 CA-MHB (pH 7.4). […].
For survival analysis, bacteria were cultivated as described for the dose–response dilution-regrowth assay. Assays with UPEC were conducted at the CBCS screening facility using 96-well plates with a 200 μl sample volume, and compounds were dispensed using the Echo® (Labcyte) system. P. aeruginosa and S. aureus samples were treated according to the protocol used for the dilution-regrowth experiments. Treated samples were serially diluted 10-fold in PBS, and 10 μl drops were spot-plated onto rectangular LB agar plates using either a Beckman NXP robot (for UPEC) or an Integra VIAFLO96 electronic pipette (for P. aeruginosa and S. aureus). The LB agar plates were incubated overnight at 37 °C and scanned. Colonies were counted at the spots of the lowest dilution where individual colonies could be accurately distinguished. Each colony was manually marked on a separate image layer using the GNU Image Manipulation Program, and counted using NIST’s Integrated Colony Enumerator (NICE 1.4) software. The experiments were performed in three biological replicates.

The test system of another assay is S. flexneri 5a M90T. Description: MIC in tryptic soy broth, S. flexneri. The conditions noted are these: Shigella flexneri, 5AM90T, read-out: MIC (μM) TSB. The class given is cell-based, Shigella flexneri. The protocol: (§1) Minimal inhibitory concentrations (MICs) were determined using a standard microdilution assay protocol. CA-MHB medium buffered with 40 mM HEPES (pH 7.4) was used to determine the MICs for UPEC, P. aeruginosa, and S. aureus. […] MICs for UPEC were also determined in LPM buffered with 30 mM MES (pH 5.5). For S. flexneri, MICs were determined in tryptic soy broth (TSB). The assay was performed in triplicates.

The test system of assay [2] is intracellular S. flexneri 5a M90T in TC7 cells. As to the kind of experiment: microbe, parasite or virus in culture. The conditions noted are these: for IC50: Shigella flexneri, TC7, 14 h; for Fluorescence intensity (RFU), Mean, 0.0625 x MIC / Fluorescence intensity (RFU), Mean, 0.125 x MIC / Fluorescence intensity (RFU), Mean, 0.25 x MIC / Fluorescence intensity (RFU), Mean, 0.5 x MIC / Fluorescence intensity (RFU), Mean, 2 x MIC / Fluorescence intensity (RFU), Mean, MIC: TC7 cells infected with GFP-expressing S. flexneri, 14 h treatment. The class given is cell-based, Shigella flexneri. From the text: Nonproliferating bacterial pathogens frequently inhabit intracellular environments, but establishing relevant infection models for high-throughput testing is challenging. Therefore, we firstly tested ability of the hit compounds to cross the eukaryotic cytoplasmic membrane barrier and inhibit growth of S. flexneri within the cytoplasm of the TC7 human colon adenocarcinoma cell line[59]. To this end, we developed a new, fluorescence-based method that enables real-time monitoring of growth of intracellular Shigella. We used S. flexneri 5a M90T strain producing the AfaE adhesin that enhances bacterial adhesion to epithelial cells and allows synchronization of invasion. The strain was further modified to constitutively express super-folder GFP (sfGFP), which enables monitoring bacterial growth by fluorescence measurement. The epithelial cells were grown to confluence and infected with bacteria at an MOI (multiplicity of infection) of 50. […] Following bacterial adhesion and invasion, the cells were incubated with varying concentrations of the hit compounds and intracellular bacterial growth was tracked by measuring green fluorescence.
The cells were split using trypsin, seeded in 96-well plates for infection, and grown to confluence, corresponding to approximately 40,000 cells per well.
A single colony of S. flexneri was inoculated into TSB supplemented with 50 μg/ml spectinomycin and incubated overnight at 37°C with agitation. The overnight culture was diluted 1:200 in fresh TSB, and the bacteria were grown at 37 °C until the OD600 reached 0.3–0.4, corresponding to approximately 2 × 10^7 CFU/ml. Bacteria were pelleted by centrifugation, washed twice with sterile PBS, and resuspended in infection solution (serum-free DMEM supplemented with 20 mM HEPES, pH 7.4). Just prior to infection, the medium was withdrawn, and the cells were washed twice with sterile PBS. The bacterial inoculum (MOI 50, 2 × 10^7 CFU/ml) was added to all wells except the no-infection control. The plates were incubated at room temperature for 15 min to allow bacterial adhesion, followed by a 1 h incubation at 37 °C with 5% CO2 to facilitate bacterial invasion.
Twofold serial dilutions of the drugs were prepared in infection solution containing 50 μg/ml gentamicin in a 96-well plate. After the invasion period, the bacterial inoculum was removed, and the serial dilutions of the drugs were added to the wells, except for the no-drug control. […] […] The experiments were performed in triplicates on separate days.
(§2) Statistical significance of the drug effects was assessed using a one-way ANOVA followed by Dunnett’s test, comparing each treatment to the drug-free control. Statistical significance of the differences in chemical characteristics between the hit compounds and the Prestwick library was assessed using a Mann–Whitney test. Statistical significance was set at P ≤ 0.05. A five-parameter logistic equation was used for asymmetric sigmoidal curve fitting and for EC50 and IC50 determination. The Venn diagram in Fig. 1F was prepared using BioVenn web application. Characteristics of the chemical and physical properties of Prestwick library compounds were obtained from Supplementary Table S1 from reference. Characteristics of the hit compounds not included in the Prestwick library were retrieved from the PubChem database.

The test system of another assay is S. aureus DSM2569. As to the kind of experiment: MIC, standard microdilution assay, growing S. aureus. Format: cell-based, Staphylococcus aureus. The conditions noted are these: Staphylococcus aureus, DSM2569; S. aureus; CA-MHB pH 7.4; read-out: MIC (μM) CA-MHB. The protocol: as §1
The subject of another assay is E. coli CFT073 (UPEC). Description: MIC, standard microdilution assay, growing UPEC. The conditions noted are these: E. coli; for MIC (μM) CA-MHB +PAβN: CA-MHB with 10 μg/ml efflux pump inhibitor PaβN. Format: cell-based, Escherichia coli. The procedure: as §1
(Dilution methods test growth across graded concentrations, often in twofold steps.)

Another assay has as its system P. aeruginosa DSM1117. Description: MIC, standard microdilution assay, growing P. aeruginosa. Format: cell-based, Pseudomonas aeruginosa. Conditions: Pseudomonas aeruginosa, DSM1117; P. aeruginosa; CA-MHB pH 7.4; read-out: MIC (μM) CA-MHB. The procedure: as §1
Another assay relates to non-growing UPEC CFT073. Description: Dilution-regrowth assay (screen, hit validation, dose-response) on stationary-phase UPEC. The conditions noted are these: at 0.5 µM. The class given is cell-based, Escherichia coli. The protocol:
The cultures were incubated for 24 h in non-baffled Erlenmeyer flasks at 37 °C with shaking at 200 rpm.
The high-throughput screening (HTS) procedure was based on the protocol by Hazan and colleagues[15] and conducted at the Chemical Biology Consortium Sweden (CBCS) screening facility. […] Each plate included eight wells with 200 nl of 10 mM gatifloxacin, finafloxacin, and kanamycin solutions, along with 8-wells containing 200 nl of DMSO as controls. After 24 h incubation,100 μl of the culture was dispensed into each well of the 384-well plates for screening at a final concentration of 20 μM. The plates were sealed with parafilm and incubated at 37 °C for 24 h in closed humidified boxes, with wet paper towels added to prevent evaporation. […] The plates were incubated at 37 °C for 6 h in humidified boxes, then OD600 was measured using a microplate reader.
For hit validation, bacteria were cultivated, and the dilution-regrowth assay was conducted following the same protocol used in the primary screen. Hit compounds were dispensed into 384-well plates using the Echo® (Labcyte) system, with 200, 100, or 50 nl of a 10 mM solution in DMSO added per well, yielding final screening concentrations of 20, 10, and 5 μM, respectively. OD600 values of regrowing samples were normalized to the mean OD600 of the drug-free control. The testing was conducted in two replicates.
For UPEC, dose–response analysis was conducted at the CBCS screening facility. Bacteria were cultivated, and the dilution-regrowth assay was performed according to the HTS protocol. Compounds were dispensed into 384-well plates using the Echo® (Labcyte) system, and regrowth was assessed by measuring OD600 after 6 h of incubation at 37 °C in humidified boxes. Three biological replicates were performed.
as §2

The mark [3] stands for this setting: Escherichia coli, pH 7.4, 1:4 diluted CA-MHB, read-out: MIC (μM) 1:4 CA-MHB.
[4] abbreviates: Escherichia coli, pH 7.4, CA-MHB, read-out: MIC (μM) CA-MHB.

As to `CO[C@@H]1[C@@H](O[C@@H]2O[C@H](C)[C@@H](O[C@H]3C[C@@](C)(O)[C@@H](OC(=O)CC(C)C)[C@H](C)O3)[C@H](N(C)C)[C@H]2O)[C@@H](CC=O)C[C@@H](C)[C@@H](O)/C=C/C=C/C[C@@H](C)OC(=O)C[C@H]1OC(C)=O` [Josamycin], the “average Δlog10(CFU/ml) (killing)” value in assay [1] (drug conc. 0.1) is recorded as 0.030 log10(CFU/ml); in assay [1] (drug conc. 0.5), 0.110 log10(CFU/ml); in assay [1] (drug conc. 2.5) it was 0.195 log10(CFU/ml); in assay [1] (drug conc. 10), 0.084 log10(CFU/ml). Besides, the MIC with S. flexneri 5a M90T is 128 µM (≈ 106 µg/mL); in the assay on S. aureus DSM2569 it was 2 µM (≈ 1.66 µg/mL); in the assay on E. coli CFT073 (UPEC) (setting [3]), 80 µM (≈ 66.2 µg/mL); in the assay on E. coli CFT073 (UPEC) (setting [4]), 80 µM (≈ 66.2 µg/mL); in the assay on P. aeruginosa DSM1117, > 160 µM. In addition, the “MIC:IC50 ratio” value in assay [2] (S. flexneri MIC in TSB versus intracellular IC50) was > 2. The molecule also gave an IC50 in assay [2] of 34.3 µM. The “Fluorescence intensity (RFU), Mean, 0.0625 x MIC” value in assay [2] is recorded as 8835.42 RFU. In addition, the “Fluorescence intensity (RFU), Mean, 0.125 x MIC” value in assay [2] is recorded as 7817.11 RFU. For the same molecule, the “Fluorescence intensity (RFU), Mean, 0.25 x MIC” value in assay [2] is on record as 5830.67 RFU. In addition, the “Fluorescence intensity (RFU), Mean, 0.5 x MIC” value in assay [2] came out at 2645.69 RFU. For the same molecule, the “Fluorescence intensity (RFU), Mean, 2 x MIC” value in assay [2] is listed as 1478.33 RFU. For the same molecule, in assay [2], the “Fluorescence intensity (RFU), Mean, MIC” value worked out at 1710.25 RFU. The “MIC (μM) CA-MHB +PAβN” value with E. coli CFT073 (UPEC) (pH 7.4) is 40 µM (≈ 33.1 µg/mL).
In the case of `CCC(=O)O[C@@H]1CC(=O)O[C@H](C)C/C=C/C=C/[C@H](O)[C@H](C)C[C@H](CC=O)[C@H](O[C@@H]2O[C@H](C)[C@@H](O[C@H]3C[C@@](C)(O)[C@@H](OC(=O)CC)[C@H](C)O3)[C@H](N(C)C)[C@H]2O)[C@H]1OC` [Midecamycin], the MIC in the assay on S. flexneri 5a M90T was 128 µM (≈ 104 µg/mL). In addition, in assay [2], it took 91 µM to reach half-maximal inhibition (IC50); the “Fluorescence intensity (RFU), Mean, 0.0625 x MIC” value is 9401.53 RFU; the “Fluorescence intensity (RFU), Mean, 0.125 x MIC” value was 9631.81 RFU; the “Fluorescence intensity (RFU), Mean, 0.25 x MIC” value stood at 8761.75 RFU. In assay [2], the “Fluorescence intensity (RFU), Mean, 0.5 x MIC” value is listed as 6972.36 RFU; the “Fluorescence intensity (RFU), Mean, 2 x MIC” value worked out at 1708.61 RFU; the “Fluorescence intensity (RFU), Mean, MIC” value turned out to be 3717.14 RFU. The MIC in the assay with S. aureus DSM2569 stood at 2 µM (≈ 1.63 µg/mL). Besides, the “MIC (μM) CA-MHB +PAβN” value against E. coli CFT073 (UPEC) (pH 7.4) turned out to be 160 µM (≈ 130 µg/mL). Further, in the assay on E. coli CFT073 (UPEC) (pH 7.4, CA-MHB, read-out: MIC (μM) CA-MHB), the MIC is given as >160 µM. Moreover, the MIC with E. coli CFT073 (UPEC) (Escherichia coli, LPM pH 5.5, read-out: MIC) was determined as 160 µM (≈ 130 µg/mL). Further, in the assay on E. coli CFT073 (UPEC) (setting [3]), the MIC was determined as 160 µM (≈ 130 µg/mL). The minimum inhibitory concentration (MIC) in the assay on E. coli CFT073 (UPEC) (setting [4]) was > 160 µM. Moreover, the UPEC regrowth delay entry with non-growing UPEC CFT073 was “effectively delays UPEC regrowth”. Besides, the MIC with P. aeruginosa DSM1117 was > 160 µM.
